Columns and labels:
Type in all cases: in vivo
Settings in all cases: rated four to five weeks after treatment
[1] = tested on: ORYZA SATIVA, L. TEBONNET; experiment: Preemergence herbicidal evaluation, ORYSAT (Rice, Tebonnet); parameters: key to ORYSAT: visual rating scale 0-9 vs control
From the text: (§1) Results of herbicide evaluation are expressed on a rating scale (0-9). The scale is based upon a visual observation of plant stand, vigor, malformation, size, chlorosis and overall plant appearance as compared with a control.
(§2) The preemergence herbicidal activity of the test compounds of the present invention is exemplified by the following tests in which the seeds of a variety of monocotyledonous and dicotyledonous plants are separately mixed with potting soil and planted on top of approximately one inch of soil in separate pint cups. After planting, the cups are sprayed with the selected aqueous acetone solution containing test compound in sufficient quantity to provide the equivalent of about 0.125 to 0.50 kg per hectare of test compound per cup. The treated cups are then placed on greenhouse benches, watered and cared for in accordance with conventional greenhouse procedures. From four to five weeks after treatment, the tests are terminated and each cup is examined and rated according to the rating system provided in Example 42.

[2] = tested on: TRITICUM AESTIVUM, CV. APOLLO; experiment: Preemergence herbicidal evaluation, TRZAWO (Wheat, Winter, CV. APOLLO); parameters: key to TRZAWO: visual rating scale 0-9 vs control
From the text: as §1, §2

[3] = tested on: GLYCINE MAX(L)MERR. CV. WILLIAMS; experiment: Preemergence herbicidal evaluation, GLXMAW (Soybean, Williams); parameters: key to GLXMAW: visual rating scale 0-9 vs control
From the text: as §1, §2

[4] = tested on: AMBROSIA ARTEMISIIFOLIA, L.; experiment: Preemergence herbicidal evaluation, AMBEL (Ragweed, Common); parameters: key to AMBEL: visual rating scale 0-9 vs control
From the text: as §1, §2

CASSIA OBTUSIFOLIA, L. [5] = experiment: Postemergence herbicidal evaluation, CASOB (Sicklepod)
Experimental: (§3) In the tests, seedling plants are grown in jiffy flats for about two weeks. The test compounds are dispersed in 50/50 acetone/water mixtures containing 0.5% TWEEN®20, a polyoxyethylene sorbitan monolaurate surfactant of Atlas Chemical Industries, in sufficient quantities to provide the equivalent of about 0.125 kg to 0.500 kg per hectare of active compound when applied to the plants through a spray nozzle operating at 40 psi for a predetermined time. After spraying, the plants are placed on greenhouse benches and are cared for in the usual manner, commensurate with conventional greenhouse practices. From four to five weeks after treatment, the seedling plants are examined and rated according to the rating system set forth below. Where more than one test is involved for a given compound, the data are averaged.
as §1

[6] = tested on: SETARIA VIRIDIS, (L) BEAU; experiment: Preemergence herbicidal evaluation, SETVI (Foxtail, Green); parameters: key to SETVI: visual rating scale 0-9 vs control
From the text: as §1, §2

[7] = tested on: ECHINOCHLOA CRUS-GALLI, (L) BEAU; experiment: Preemergence herbicidal evaluation, ECHCG (Barnyardgrass); parameters: key to ECHCG: visual rating scale 0-9 vs control
From the text: as §1, §2

[8] = tested on: ABUTILON THEOPHRASTI, MEDIC.; experiment: Preemergence herbicidal evaluation, ABUTH (Velvetleaf); parameters: key to ABUTH: visual rating scale 0-9 vs control
From the text: as §1, §2

GALIUM APARINE = experiment: Preemergence herbicidal evaluation, GALAP (Galium); parameters: key to GALAP: visual rating scale 0-9 vs control
From the text: as §1, §2

CHENOPODIUM ALBUM, L. = experiment: Preemergence herbicidal evaluation, CHEAL (Lambsquarters, Common); parameters: key to CHEAL: visual rating scale 0-9 vs control
From the text: as §1, §2

CASSIA OBTUSIFOLIA, L. [9] = experiment: Preemergence herbicidal evaluation, CASOB (Sicklepod); parameters: key to CASOB: visual rating scale 0-9 vs control
From the text: as §1, §2

[10] = tested on: ECHINOCHLOA CRUS-GALLI, (L) BEAU; experiment: Postemergence herbicidal evaluation, ECHCG (Barnyardgrass)
Experimental: as §3, §1

ZEA MAYS L. = experiment: Preemergence herbicidal evaluation, ZEAMX (Corn, Field); parameters: key to ZEAMX: visual rating scale 0-9 vs control
From the text: as §1, §2

[11] = tested on: SETARIA VIRIDIS, (L) BEAU; experiment: Postemergence herbicidal evaluation, SETVI (Foxtail, Green)
Experimental: as §3, §1

IPOMOEA SPP. = experiment: Preemergence herbicidal evaluation, IPOSS (Morningglory Spp.); parameters: key to IPOSS: visual rating scale 0-9 vs control
From the text: as §1, §2

[12] = tested on: TRITICUM AESTIVUM, CV. APOLLO; experiment: Postemergence herbicidal evaluation, TRZAWO (Wheat, Winter, CV. APOLLO)
Experimental: as §3, §1

[13] = tested on: ABUTILON THEOPHRASTI, MEDIC.; experiment: Postemergence herbicidal evaluation, ABUTH (Velvetleaf)
Experimental: as §3, §1

Structure (SMILES): CCOC(=O)Cn1c(=O)[nH]c(=O)n(-c2ccc(F)c(N3C(=O)C4=C(CCCC4)C3=O)c2)c1=O [Compound 9, Ethyl 3-[3-(1-cyclohexene-1,2-dicarbox-imido)-4-fluorophenyl]tetrahydro-2,4,6-trioxo-s-triazine-1(2H)-acetate]
- Herbicide rating (0-9) ORYSAT ([1]; 0.125 kg/ha): 0.0
- Herbicide rating (0-9) ORYSAT ([1]; 0.250 kg/ha): 0.0
- Herbicide rating (0-9) ORYSAT ([1]; 0.500 kg/ha): 0.0
- Herbicide rating (0-9) TRZAWO ([2]; 0.125 kg/ha): 0.0
- Herbicide rating (0-9) TRZAWO ([2]; 0.250 kg/ha): 0.0
- Herbicide rating (0-9) TRZAWO ([2]; 0.500 kg/ha): 0.0
- Herbicide rating (0-9) GLXMAW ([3]; 0.125 kg/ha): 0.0
- Herbicide rating (0-9) GLXMAW ([3]; 0.250 kg/ha): 0.0
- Herbicide rating (0-9) GLXMAW ([3]; 0.500 kg/ha): 0.0
- Herbicide rating (0-9) AMBEL ([4]; 0.125 kg/ha): 0.0
- Herbicide rating (0-9) AMBEL ([4]; 0.250 kg/ha): 0.0
- Herbicide rating (0-9) AMBEL ([4]; 0.500 kg/ha): 0.0
- Herbicide rating (0-9) CASOB (CASSIA OBTUSIFOLIA, L. [5]; 0.125 kg/ha): 0.0
- Herbicide rating (0-9) CASOB (CASSIA OBTUSIFOLIA, L. [5]; 0.250 kg/ha): 0.0
- Herbicide rating (0-9) CASOB (CASSIA OBTUSIFOLIA, L. [5]; 0.500 kg/ha): 0.0
- Herbicide rating (0-9) SETVI ([6]; 0.125 kg/ha): 0.0
- Herbicide rating (0-9) SETVI ([6]; 0.250 kg/ha): 0.0
- Herbicide rating (0-9) SETVI ([6]; 0.500 kg/ha): 0.0
- Herbicide rating (0-9) ECHCG ([7]; 0.125 kg/ha): 0.0
- Herbicide rating (0-9) ECHCG ([7]; 0.250 kg/ha): 0.0
- Herbicide rating (0-9) ECHCG ([7]; 0.500 kg/ha): 0.0
- Herbicide rating (0-9) ABUTH ([8]; 0.125 kg/ha): 0.0
- Herbicide rating (0-9) ABUTH ([8]; 0.250 kg/ha): 0.0
- Herbicide rating (0-9) ABUTH ([8]; 0.500 kg/ha): 0.0
- Herbicide rating (0-9) GALAP (GALIUM APARINE; 0.125 kg/ha): 0.0
- Herbicide rating (0-9) GALAP (GALIUM APARINE; 0.250 kg/ha): 0.0
- Herbicide rating (0-9) GALAP (GALIUM APARINE; 0.500 kg/ha): 0.0
- Herbicide rating (0-9) CHEAL (CHENOPODIUM ALBUM, L.; 0.125 kg/ha): 0.0
- Herbicide rating (0-9) CHEAL (CHENOPODIUM ALBUM, L.; 0.250 kg/ha): 0.0
- Herbicide rating (0-9) CHEAL (CHENOPODIUM ALBUM, L.; 0.500 kg/ha): 0.0
- Herbicide rating (0-9) CASOB (CASSIA OBTUSIFOLIA, L. [9]; 0.125 kg/ha): 0.0
- Herbicide rating (0-9) CASOB (CASSIA OBTUSIFOLIA, L. [9]; 0.250 kg/ha): 0.0
- Herbicide rating (0-9) CASOB (CASSIA OBTUSIFOLIA, L. [9]; 0.500 kg/ha): 0.0
- Herbicide rating (0-9) ECHCG ([10]; 0.125 kg/ha): 0.0
- Herbicide rating (0-9) ECHCG ([10]; 0.250 kg/ha): 0.0
- Herbicide rating (0-9) ECHCG ([10]; 0.500 kg/ha): 0.0
- Herbicide rating (0-9) ZEAMX (ZEA MAYS L.; 0.125 kg/ha): 0.0
- Herbicide rating (0-9) ZEAMX (ZEA MAYS L.; 0.250 kg/ha): 0.0
- Herbicide rating (0-9) ZEAMX (ZEA MAYS L.; 0.500 kg/ha): 0.0
- Herbicide rating (0-9) SETVI ([11]; 0.125 kg/ha): 0.0
- Herbicide rating (0-9) SETVI ([11]; 0.250 kg/ha): 0.0
- Herbicide rating (0-9) SETVI ([11]; 0.500 kg/ha): 0.0
- Herbicide rating (0-9) IPOSS (IPOMOEA SPP.; 0.125 kg/ha): 0.0
- Herbicide rating (0-9) IPOSS (IPOMOEA SPP.; 0.250 kg/ha): 0.0
- Herbicide rating (0-9) IPOSS (IPOMOEA SPP.; 0.500 kg/ha): 0.0

Structure (SMILES): CC(C)OC(=O)Cn1c(=O)n(C)c(=O)n(-c2cc(N=c3sc(=O)n4n3CCCC4)c(F)cc2Cl)c1=O [Compound 13, Isopropyl 3-{2-chloro-4-fluoro-5-[(tetra-hydro-3-oxo-1H,3H-[1,3,4]thiadiazolo[3,4-a]pyridazin-1-ylidene)amino]phenyl}tetra-hydro-5-methyl-2,4,6-trioxo-s-triazine-1(2H)-acetate]
- ORYSAT ([1]; Rate 0.125 kg/ha): 0.0
- ORYSAT ([1]; Rate 0.250 kg/ha): 1.0
- ORYSAT ([1]; Rate 0.500 kg/ha): 2.0
- TRZAWO ([2]; Rate 0.125 kg/ha): 0.0
- TRZAWO ([2]; Rate 0.250 kg/ha): 0.0
- TRZAWO ([2]; Rate 0.500 kg/ha): 1.0
- GLXMAW ([3]; Rate 0.125 kg/ha): 0.0
- GLXMAW ([3]; Rate 0.250 kg/ha): 0.0
- GLXMAW ([3]; Rate 0.500 kg/ha): 0.0
- AMBEL ([4]; Rate 0.125 kg/ha): 0.0
- AMBEL ([4]; Rate 0.250 kg/ha): 3.0
- AMBEL ([4]; Rate 0.500 kg/ha): 8.0
- SETVI ([6]; Rate 0.125 kg/ha): 0.0
- SETVI ([6]; Rate 0.250 kg/ha): 7.0
- SETVI ([6]; Rate 0.500 kg/ha): 7.0
- ECHCG ([7]; Rate 0.125 kg/ha): 0.0
- ECHCG ([7]; Rate 0.250 kg/ha): 0.0
- ECHCG ([7]; Rate 0.500 kg/ha): 0.0
- ABUTH ([8]; Rate 0.125 kg/ha): 9.0
- ABUTH ([8]; Rate 0.250 kg/ha): 9.0
- ABUTH ([8]; Rate 0.500 kg/ha): 9.0
- GALAP (GALIUM APARINE; Rate 0.125 kg/ha): 9.0
- GALAP (GALIUM APARINE; Rate 0.250 kg/ha): 8.0
- GALAP (GALIUM APARINE; Rate 0.500 kg/ha): 9.0
- Herbicide rating (0-9) TRZAWO ([12]; 0.125 kg/ha): 3.5
- Herbicide rating (0-9) TRZAWO ([12]; 0.250 kg/ha): 3.5
- Herbicide rating (0-9) TRZAWO ([12]; 0.500 kg/ha): 3.5
- CHEAL (CHENOPODIUM ALBUM, L.; Rate 0.125 kg/ha): 9.0
- CHEAL (CHENOPODIUM ALBUM, L.; Rate 0.250 kg/ha): 9.0
- CHEAL (CHENOPODIUM ALBUM, L.; Rate 0.500 kg/ha): 9.0
- CASOB (CASSIA OBTUSIFOLIA, L. [9]; Rate 0.125 kg/ha): 5.0
- CASOB (CASSIA OBTUSIFOLIA, L. [9]; Rate 0.250 kg/ha): 9.0
- CASOB (CASSIA OBTUSIFOLIA, L. [9]; Rate 0.500 kg/ha): 9.0
- Herbicide rating (0-9) ECHCG ([10]; 0.125 kg/ha): 0.0
- Herbicide rating (0-9) ECHCG ([10]; 0.250 kg/ha): 0.0
- Herbicide rating (0-9) ECHCG ([10]; 0.500 kg/ha): 0.0
- ZEAMX (ZEA MAYS L.; Rate 0.125 kg/ha): 0.0
- ZEAMX (ZEA MAYS L.; Rate 0.250 kg/ha): 0.0
- ZEAMX (ZEA MAYS L.; Rate 0.500 kg/ha): 1.0
- Herbicide rating (0-9) SETVI ([11]; 0.125 kg/ha): 1.0
- Herbicide rating (0-9) SETVI ([11]; 0.250 kg/ha): 1.0
- Herbicide rating (0-9) SETVI ([11]; 0.500 kg/ha): 1.0
- Herbicide rating (0-9) ABUTH ([13]; 0.125 kg/ha): 9.0
- Herbicide rating (0-9) ABUTH ([13]; 0.250 kg/ha): 9.0
- Herbicide rating (0-9) ABUTH ([13]; 0.500 kg/ha): 9.0
- IPOSS (IPOMOEA SPP.; Rate 0.125 kg/ha): 2.0
- IPOSS (IPOMOEA SPP.; Rate 0.250 kg/ha): 5.0
- IPOSS (IPOMOEA SPP.; Rate 0.500 kg/ha): 6.0

— patent publication EP0745599A2, “1-(3-Heterocyclylphenyl)-s-triazine-2,4,6-oxo or thiotrione herbicidal agents” (American Cyanamid Company, priority 1995, dated 1996)
